Results taken from article PMC6155831, “Promising Inhibitory Effects of Anthraquinones, Naphthopyrone, and Naphthalene Glycosides, from Cassia obtusifolia on α-Glucosidase and Human Protein Tyrosine Phosphatases 1B” (Molecules : A Journal of Synthetic Chemistry and Natural …, 2016).
pKi: −log10 of the molar value.

What was measured:
[1] = target: Yeast α-glucosidase; assay: α-Glucosidase inhibitory assay with pNPG as substrate; format: biochemical; conditions: test concentration up to 400 µg/mL in 10% DMSO, triplicate
Method: Enzyme inhibition assays were carried out spectrophotometrically using a procedure reported by Li et al.. A 60 μL reaction mixture containing 20 μL of 100 mM phosphate buffer (pH 6.8), 20 μL of 2.5 mM pNPG, and 20 μL of sample (test concentration up to 400 μg/ml for compounds) dissolved in 10% DMSO was added to each well, followed by the addition of 20 μL of α-glucosidase (0.2 U/mL in 10 mM phosphate buffer (pH 6.8)). The plate was incubated at 37 °C for 15 min, and then 80 μL of 0.2 M sodium carbonate solution was added to stop the reaction. Right after that, the absorbance was recorded at 405 nm using a VERSA max microplate reader (Molecular Devices, Sunnyvale, CA, USA). The control contained the same reaction mixture with the same volume of phosphate buffer instead of sample solution. […] The percent inhibition (%) was obtained using the following equation: % Inhibition = (Ac − As)/Ac × 100, where Ac is the absorbance of the control, and As is the absorbance of the sample.

[2] = target: T1, PTP1B (human recombinant) (Homo sapiens, UniProt P18031); assay: Protein tyrosine phosphatase 1B (PTP1B) inhibition assay with pNPP as substrate; format: biochemical; conditions: for PTP1B IC50 (Mean ± SEM) / IC50: pNPP substrate, test concentration up to 100 µg/mL in 10% DMSO, triplicate; for IC50: read-out: PTP1B IC50 (Mean ± SEM) (converted)
T1 construct: purchased Biomol International LP (Plymouth Meeting, PA, USA)
T1 sequence (P18031 1-435): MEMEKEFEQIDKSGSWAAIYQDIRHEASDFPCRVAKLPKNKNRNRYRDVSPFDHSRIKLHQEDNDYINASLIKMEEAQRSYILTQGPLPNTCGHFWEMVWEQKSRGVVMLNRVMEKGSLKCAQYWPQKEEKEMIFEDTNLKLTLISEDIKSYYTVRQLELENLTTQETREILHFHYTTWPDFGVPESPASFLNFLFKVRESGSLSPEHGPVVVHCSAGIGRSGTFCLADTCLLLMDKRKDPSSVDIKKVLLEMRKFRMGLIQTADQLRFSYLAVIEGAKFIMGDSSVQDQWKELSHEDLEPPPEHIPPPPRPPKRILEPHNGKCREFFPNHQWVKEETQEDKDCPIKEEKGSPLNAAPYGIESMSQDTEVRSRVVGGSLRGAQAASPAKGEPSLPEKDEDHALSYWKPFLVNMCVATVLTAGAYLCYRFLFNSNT
Method: The PTP1B inhibitory activities were evaluated using p-nitrophenyl phosphate as the substrate (pNPP) in a procedure reported by Cui et al.. Each well of a 96-well plate (final volume 100 μL) contained were 40 μL of PTP1B enzyme (0.5 units diluted with a PTP1B reaction buffer containing 50 mM citrate (pH 6.0), 0.1 M NaCl, 1 mM EDTA, and 1 mM dithiotheritol (DTT)), to which sample (test concentration up to 100 μg/mL) dissolved in 10% DMSO was or was not added. The plate was pre-incubated at 37 °C for 10 min, and then 50 μL of 2 mM pNPP in PTP1B reaction buffer was added. Following incubation at 37 °C for 30 min, the reaction was terminated with the addition of 10 M NaOH. The amounts of p-nitrophenyl produced after enzymatic dephosphorylation from pNPP was estimated by measuring the absorbance at 405 nm using microplate spectrophotometer (Molecular Devices). The non-enzymatic hydrolysis of 2 mM pNPP was corrected by measuring the increase in absorbance at 405 nm obtained in the absence of PTP1B enzyme. The percent inhibition (%) was obtained by the following equation: % inhibition = (Ac − As)/Ac × 100, where Ac is the absorbance of the control, and As is the absorbance of the sample.

[3] = test system: α-glucosidase; parameters: method as in doi:10.1007/s10600-012-0275-4, PMID 25142941; conditions: from the EtOAc fraction of the methanolic extract of C. obtusifolia; cited from earlier work
[4] = test system: PTP1B; parameters: method as in earlier work; conditions: cited from earlier work
[5] = test system: HepG2 cells; assay: MTT cytotoxicity assay on HepG2 cells; conditions: 24 h
Method: Before determining the insulin resistance of alaternin and emodin, the cytotoxicity of alaternin and emodin on HepG2 cells was first measured by the MTT assay. […] To investigate the ability of alaternin and emodin to increase glucose uptake, a 2-[N-(7-nitrobenz-2-oxa-1,3-diazol-4-yl) amino]-2-deoxy-D-glucose (2-NBDG) uptake assay was performed with insulin-resistant HepG2 cells.

[6] = test system: insulin-resistant HepG2 cells; assay: 2-NBDG glucose uptake assay in insulin-resistant HepG2 cells; format: cell-based, human; conditions: for insulin-stimulated uptake of 2-NBDG: 24 h, compared to the control
Method: The HepG2 (human hepatocarcinoma) cell line was purchased from the American Type Culture Collection (HB-8065, Manassas, VA, USA). Cells were maintained in MEM containing 2.0 mM L-glutamine, 0.1 mM non-essential amino acids, 1.0 mM sodium pyruvate, and 10% FBS at 37 °C in a humidified atmosphere with 5% CO2. The medium was changed every 48 h. […] The establishment of an insulin-resistant HepG2 cell model and glucose uptake was performed according to the reported method, with slight modifications. Briefly, HepG2 cells were cultured in 96-well cluster plates. After reaching confluence, the cells were treated with 10^−6 mol/L insulin for 24 h to induce insulin resistance. […] After this incubation, the 2-NBDG uptake in insulin-resistant HepG2 cells was measured. The cells were incubated with 40 μM 2-NBDG for 30 min. To stop the response, cells were washed with ice-cold PBS and the fluorescence intensity of 2-NBDG was measured on a Synergy HT microplate reader (BioTek Instruments, Winooski, VT, USA) at 485 nm excitation and 528 nm emission. Six replicate wells were established and each experiment was repeated three times.

[7] = test system: Yeast α-glucosidase; assay: Enzyme kinetic analysis of α-glucosidase inhibition (Dixon and Lineweaver-Burk plots); format: biochemical; conditions: for Inhibition type α-Glucosidase: Dixon plot and Lineweaver-Burk plot
Method: (§1) Since the Ki value represents the concentration needed to form an enzyme-inhibitor complex, this value plays an important role in the development of preventive and therapeutic agents.
(§2) In order to determine the inhibition mechanism, enzymatic inhibition at various concentrations of alaternin was evaluated by monitoring the effects of different concentrations of the substrates via Dixon plots (single reciprocal plot). Dixon plots of inhibition of PTP1B by alaternin were obtained in the presence of different concentrations of substrate: 1.0, 0.5, and 0.25 mM of pNPP. The test concentrations of alaternin in the PTP1B kinetic analysis were 0, 0.8, and 4.0 µM. Dixon plots of α-glucosidase inhibition by alaternin were performed in the presence of different concentrations of substrate: 2.5, 1.25, and 0.625 mM of pNPG. The test concentrations of alaternin used in the α-glucosidase kinetic analysis were 0.97, 1.95, and 3.90 µM. Both enzymatic procedures consisted of the same, aforementioned PTP1B and α-glucosidase assay methods. The inhibition constants (Ki) were determined by interpretation of the Dixon plots, where the value of the x-axis implies −Ki.

[8] = target: T1, PTP1B (human recombinant); assay: Enzyme kinetic analysis of PTP1B inhibition (Dixon and Lineweaver-Burk plots); format: biochemical
Method: as §1, §2

IC50 [2]	Compound	α-Glucosidase IC50 (Mean ± SEM) [1]	PTP1B IC50 (Mean ± SEM) [2]	other results
–	COc1c(O[C@@H]2O[C@H](CO)[C@@H](O)[C@H](O)[C@H]2O)c(C)cc2c1C(=O)c1c(O)cccc1C2=O [Gluco-obtusifolin]	23.77 ± 0.72 µg/mL	53.35 ± 0.44 µg/mL	–
124 µM	COc1c(O)c(C)cc2c1C(=O)c1c(O)cccc1C2=O [Obtusifolin]	142.12 ± 0.77 µg/mL	–	α-glucosidase inhibitory activity (reported) [3]: inactive
–	COc1cc(C)cc2c1C(=O)c1c(O)cc(O)cc1C2=O [1-O-methylemodin]	–	–	α-glucosidase inhibitory activity (reported) [3]: inactive
82.3 µM	COc1c(O)cc2c(c1O)C(=O)c1c(cc(C)c(O)c1OC)C2=O [Aurantio-obtusin]	41.20 ± 0.17 µg/mL	–	α-glucosidase inhibitory activity (reported) [3]: inactive
–	Cassiaside	129.23 ± 0.98 µg/mL	48.55 ± 1.27 µg/mL	–
–	COc1cc2c(c(OC)c1OC)C(=O)c1c(cc(C)c(O[C@@H]3O[C@H](CO)[C@@H](O)[C@H](O)[C@H]3O)c1OC)C2=O [Chryso-obtusin-2-glucoside, chryso-obtusin-2-O-β-D-glucoside]	178.85 ± 0.55 µg/mL	39.34 ± 1.07 µg/mL	–
25.6 µM	COc1cc(O)c2c(c1)C(=O)c1cc(C)cc(O)c1C2=O [Physcion]	2.38 ± 0.77 µg/mL	–	α-glucosidase inhibitory activity (reported) [3]: α-glucosidase inhibitors; PTP1B inhibition (previous reports) [4]: inhibited PTP1B
–	COc1c(O[C@@H]2O[C@H](CO)[C@@H](O)[C@H](O)[C@H]2O)cc2c(c1O)C(=O)c1c(cc(C)c(O)c1OC)C2=O [Gluco-aurantio obtusin]	142.19 ± 1.22 µg/mL	31.30 ± 0.97 µg/mL	–
20 µM	COc1cc(O)cc2c1C(=O)c1c(O)cc(C)cc1C2=O [Questin]	136.19 ± 0.01 µg/mL	–	–
–	Toralactone gentiobioside	37.60 ± 0.79 µg/mL	81.15 ± 0.15 µg/mL	–
–	COc1cccc2c1C(=O)c1c(O)cc(C)cc1C2=O [8-O-methyl chrysophanol]	–	–	α-glucosidase inhibitory activity (reported) [3]: α-glucosidase inhibitors
–	COc1c(O)c(O)cc2c1C(=O)c1c(O)cc(C)cc1C2=O [2-Hydroxyemodin-1 methylether]	5.65 ± 0.20 µg/mL	5.22 ± 0.29 µg/mL	–
41.5 µM	COc1cc2c(c(OC)c1OC)C(=O)c1c(cc(C)c(O)c1OC)C2=O [Chryso-obtusin]	36.01 ± 0.89 µg/mL	–	α-glucosidase inhibitory activity (reported) [3]: α-glucosidase inhibitors
–	COc1cc2c(c(O)c1OC)C(=O)c1c(cc(C)c(O)c1OC)C2=O [Obtusin]	20.92 ± 0.41 µg/mL	6.44 ± 0.22 µg/mL	–
–	Cc1cc(O[C@@H]2O[C@H](CO[C@@H]3O[C@H](CO)[C@@H](O)[C@H](O[C@@H]4O[C@H](CO[C@@H]5O[C@H](CO)[C@@H](O)[C@H](O)[C@H]5O)[C@@H](O)[C@H](O)[C@H]4O)[C@H]3O)[C@@H](O)[C@H](O)[C@H]2O)c2c(c1)C(=O)c1cccc(O)c1C2=O [Chrysophanol tetraglucoside]	228.79 ± 0.91 µg/mL	103.89 ± 1.22 µg/mL	–
–	Cassitoroside	172.59 ± 0.74 µg/mL	–	–
23 µM	Cc1cc(O)c2c(c1)C(=O)c1cccc(O)c1C2=O [Chrysophanol]	46.81 ± 0.12 µg/mL	–	PTP1B inhibition (previous reports) [4]: inhibited PTP1B
–	Cc1cc(O[C@@H]2O[C@H](CO[C@@H]3O[C@H](CO)[C@@H](O)[C@H](O[C@@H]4O[C@H](CO)[C@@H](O)[C@H](O)[C@H]4O)[C@H]3O)[C@@H](O)[C@H](O)[C@H]2O)c2c(c1)C(=O)c1cccc(O)c1C2=O [Chrysophanol triglucoside]	197.06 ± 1.09 µg/mL	80.17 ± 1.77 µg/mL	–
–	CN(C)C(=N)N=C(N)N [metformin, reference compound]	–	–	insulin-stimulated glucose uptake ([6]; metformin 10 μM, positive control): significantly increased

Compound	IC50 [2]	α-Glucosidase IC50 (Mean ± SEM) [1]	PTP1B IC50 (Mean ± SEM) [2]	other results
O=C1c2cccc(O)c2C(=O)c2c(O)cc(CO)cc21 [Aloe-emodin]	207 µM	1.40 ± 0.27 µg/mL	–	–
Cc1cc(O)c2c(c1)C(=O)c1cc(O)cc(O)c1C2=O [Emodin, 1,6,8-trihydroxy 3-methyl anthraquinone]	13 µM	1.02 ± 0.01 µg/mL	–	concentration without any cytotoxicity ([5]; human): up to 12.5 µM; PTP1B inhibition (previous reports) [4]: inhibited PTP1B; insulin-stimulated uptake of 2-NBDG ([6]; 3.125, 6.25, and 12.5 μM emodin): significantly enhanced
Cc1cc2c(c(O)c1O)C(=O)c1c(O)cc(O)cc1C2=O [Alaternin, 2-hydroxy emodin]	4.26 µM	0.99 ± 0.02 µg/mL	–	Inhibition type α-Glucosidase [7]: mixed type; Inhibition type α-Glucosidase ([7]; listed as alaternin): Mixed; pKi ([7]; Dixon plot, pNPG 2.5, 1.25, 0.625 mM): 6.18; concentration without any cytotoxicity ([5]; HepG2 cells, MTT): up to 50 µM; PTP1B inhibitory activity compared with emodin ([2]; fold higher than emodin): three-fold higher; insulin-stimulated uptake of 2-NBDG ([6]; 12.5, 25, and 50 μM alaternin): significantly enhanced; Inhibition type PTP1B ([8]; Dixon plot and Lineweaver-Burk plot): Competitive; pKi ([8]; Dixon plot, pNPP 1.0, 0.5, 0.25 mM): 5.77
